We go through six molecules from patent US9550792B2, “Polycyclic substituted pyrazole kinase activity inhibitors and use thereof” (priority 2013, dated 2017).

pIC50: −log10 of the molar value. Like-named read-outs stand apart in the source and are kept apart here.

Assay type in all cases: biochemical
The target of one assay is T1, Aurora A (Homo sapiens, UniProt O14965).
T1 construct: purchased
T1 sequence (O14965 1-403): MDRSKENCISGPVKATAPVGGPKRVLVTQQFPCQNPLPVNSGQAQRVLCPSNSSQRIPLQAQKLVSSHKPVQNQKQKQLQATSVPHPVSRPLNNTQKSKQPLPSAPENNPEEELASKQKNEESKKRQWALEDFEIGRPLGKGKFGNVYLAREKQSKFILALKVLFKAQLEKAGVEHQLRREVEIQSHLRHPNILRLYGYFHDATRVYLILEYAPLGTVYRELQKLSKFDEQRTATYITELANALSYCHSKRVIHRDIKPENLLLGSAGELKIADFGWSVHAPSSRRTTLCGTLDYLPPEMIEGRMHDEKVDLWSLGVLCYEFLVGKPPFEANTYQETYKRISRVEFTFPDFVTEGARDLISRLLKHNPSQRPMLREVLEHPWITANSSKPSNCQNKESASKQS
Briefly: Inhibitory activity to Aurora A (FRET). Particulars: read-out: Aurora A inhibition % (1 × 10^−6 mol/L). The gist of the method: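 FRET kinase assay of Aurora A with peptide substrate in HEPES pH 7.5, BRIJ-35, MgCl2, EDTA; 1 h reaction, then 1 h development before stop. Ex 400 nm, emission 445 nm (coumarin) and 520 nm (fluorescein); 0% and 100% phosphorylation controls set inhibition scale.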

The next assay addresses FGFR1 (Homo sapiens, UniProt P11362). Briefly: Kinase IC50, 33P labeled isotope method.
The target in a further assay is JNK2 (Homo sapiens, UniProt P45984). As to the kind of experiment: Kinase IC50, 33P labeled isotope method.
In another assay the target is CDK1/cyclin B (Homo sapiens, UniProt P06493). As to the kind of experiment: Kinase IC50, 33P labeled isotope method.
A further assay deals with CDK4/cyclin D1 (Homo sapiens, UniProt P11802). Briefly: Kinase IC50, 33P labeled isotope method.
The next assay has as its target T2, ERK7/MAPK15 (Homo sapiens, UniProt Q8TD08).
T2 sequence (Q8TD08 13-304 limits assumed): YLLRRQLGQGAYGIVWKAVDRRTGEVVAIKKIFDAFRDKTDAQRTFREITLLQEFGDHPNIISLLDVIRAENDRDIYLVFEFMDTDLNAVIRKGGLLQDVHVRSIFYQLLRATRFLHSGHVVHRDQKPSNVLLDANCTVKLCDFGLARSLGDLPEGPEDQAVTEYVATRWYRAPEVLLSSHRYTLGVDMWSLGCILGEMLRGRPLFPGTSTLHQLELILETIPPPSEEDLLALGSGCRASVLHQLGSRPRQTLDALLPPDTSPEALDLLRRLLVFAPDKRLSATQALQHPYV
As to the kind of experiment: Kinase IC50, 33P labeled isotope method.

In another assay the target is CDK3/cyclin E (Homo sapiens, UniProt Q00526). Briefly: Kinase IC50, 33P labeled isotope method.
Another assay concerns the target CDK2/cyclin A (Homo sapiens, UniProt P24941). Briefly: Kinase IC50, 33P labeled isotope method.
For the next assay, the target named is CDK7/cyclin H (Homo sapiens, UniProt P50613). As to the kind of experiment: Kinase IC50, 33P labeled isotope method.
For the next assay, the target named is KDR/VEGFR2 (Homo sapiens, UniProt P35968). As to the kind of experiment: Kinase IC50, 33P labeled isotope method.
A further assay deals with CDK1/cyclin E (Homo sapiens, UniProt P06493). Briefly: Kinase IC50, 33P labeled isotope method.
Another assay addresses FGFR2 (Homo sapiens, UniProt P21802). As to the kind of experiment: Kinase IC50, 33P labeled isotope method.
In the next assay the target is T3, FLT1/VEGFR1 (Homo sapiens, UniProt P17948).
T3 sequence (P17948 827-1158 limits assumed): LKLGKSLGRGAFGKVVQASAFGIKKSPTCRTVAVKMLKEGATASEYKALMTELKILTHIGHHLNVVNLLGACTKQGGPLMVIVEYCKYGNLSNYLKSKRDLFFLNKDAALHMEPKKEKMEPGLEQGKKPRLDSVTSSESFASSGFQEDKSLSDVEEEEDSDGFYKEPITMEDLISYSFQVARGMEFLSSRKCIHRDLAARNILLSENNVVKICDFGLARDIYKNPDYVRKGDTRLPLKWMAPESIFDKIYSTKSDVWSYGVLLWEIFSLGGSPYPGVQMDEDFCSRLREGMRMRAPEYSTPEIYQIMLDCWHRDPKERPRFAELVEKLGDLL
As to the kind of experiment: Kinase IC50, 33P labeled isotope method.

In a further assay the target is FGFR3 (Homo sapiens, UniProt P22607). Briefly: Kinase IC50, 33P labeled isotope method. The conditions noted are these: 20 μM ATP.
For another assay, the target named is CDK1/cyclin A (Homo sapiens, UniProt P06493). As to the kind of experiment: Kinase IC50, 33P labeled isotope method.
A further assay concerns the target T4, CDK2/A (Homo sapiens, UniProt P24941).
T4 construct: purchased
As to the kind of experiment: Inhibitory activity to CDK2 (FRET). Particulars: read-out: CDK2 inhibition % (1 × 10^−6 mol/L). A digest of the protocol: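 FRET-based kinase assay using CDK2/cyclin A with peptide substrate in HEPES pH 7.5 buffer (MgCl2, BRIJ-35, EDTA). The kinase reaction ran 1 h, followed by development reagent for 1 h and a stop step. Inhibition calculated relative to phospho-peptide (100%) and ATP-free (0%) phosphorylation controls.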

Another assay concerns the target JNK1 (Homo sapiens, UniProt P45983). As to the kind of experiment: Kinase IC50, 33P labeled isotope method.
In a further assay the target is CDK2/Cyclin A1 (Homo sapiens, UniProt P24941). As to the kind of experiment: Kinase IC50, 33P labeled isotope method.
Another assay deals with CDK5/p35 (Homo sapiens, UniProt Q00535). As to the kind of experiment: Kinase IC50, 33P labeled isotope method.
Another assay deals with JAK2 (Homo sapiens, UniProt O60674). As to the kind of experiment: Kinase IC50, 33P labeled isotope method.
The mark [1] stands for this setting: 20 μM ATP, read-out: IC50* FGFR1.
The mark [2] stands for this setting: 20 μM ATP, read-out: IC50* JNK2.
The mark [3] stands for this setting: 20 μM ATP, read-out: IC50* CDK1/cyclin B.
Where [4] appears, read: 20 μM ATP, read-out: IC50* CDK4/cyclin D1.
[5] abbreviates: 20 μM ATP, read-out: IC50* ERK7/MAPK15.
Setting [6] is: 20 μM ATP, read-out: IC50* CDK3/cyclin E.
The mark [7] stands for this setting: 20 μM ATP, read-out: IC50* CDK2/cyclin A.
Setting [8] is: 20 μM ATP, read-out: IC50* CDK7/cyclin H.
Setting [9] is: 20 μM ATP, read-out: IC50* KDR/VEGFR2.
Where [10] appears, read: 20 μM ATP, read-out: IC50* CDK1/cyclin E.
[11] abbreviates: 20 μM ATP, read-out: IC50* FGFR2.
[12] abbreviates: 20 μM ATP, read-out: IC50* FLT1/VEGFR1.
Setting [13] is: 20 μM ATP, read-out: IC50* CDK1/cyclin A.
Where [14] appears, read: 20 μM ATP, read-out: IC50* JNK1.
Where [15] appears, read: 20 μM ATP, read-out: IC50* CDK2/Cyclin A1.
Setting [16] is: 20 μM ATP, read-out: IC50* CDK5/p35.
Where [17] appears, read: 20 μM ATP, read-out: IC50* JAK2.

Chain of CDK3/cyclin E (Q00526 4-286 limits assumed): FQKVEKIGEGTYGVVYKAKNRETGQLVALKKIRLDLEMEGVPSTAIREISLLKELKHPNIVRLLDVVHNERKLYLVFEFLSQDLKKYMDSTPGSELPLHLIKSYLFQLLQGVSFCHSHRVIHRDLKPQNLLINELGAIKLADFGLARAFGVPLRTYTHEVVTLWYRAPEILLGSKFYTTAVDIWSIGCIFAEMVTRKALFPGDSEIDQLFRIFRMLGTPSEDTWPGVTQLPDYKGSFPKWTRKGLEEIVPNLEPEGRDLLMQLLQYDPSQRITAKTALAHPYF
Chain of CDK3/cyclin E (P24864 whole entry partner): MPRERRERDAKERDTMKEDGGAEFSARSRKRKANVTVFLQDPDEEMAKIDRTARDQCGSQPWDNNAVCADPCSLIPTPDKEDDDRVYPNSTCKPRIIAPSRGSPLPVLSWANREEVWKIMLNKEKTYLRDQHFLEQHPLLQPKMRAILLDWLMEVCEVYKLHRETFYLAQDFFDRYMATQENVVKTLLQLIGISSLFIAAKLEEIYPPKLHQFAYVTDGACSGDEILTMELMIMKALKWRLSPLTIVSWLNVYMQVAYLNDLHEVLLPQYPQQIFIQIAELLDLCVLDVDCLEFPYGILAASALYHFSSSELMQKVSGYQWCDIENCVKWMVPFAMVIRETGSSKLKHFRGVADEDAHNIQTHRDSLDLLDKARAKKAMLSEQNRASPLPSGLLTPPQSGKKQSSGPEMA
Chain of CDK7/cyclin H (P50613 12-295 limits assumed): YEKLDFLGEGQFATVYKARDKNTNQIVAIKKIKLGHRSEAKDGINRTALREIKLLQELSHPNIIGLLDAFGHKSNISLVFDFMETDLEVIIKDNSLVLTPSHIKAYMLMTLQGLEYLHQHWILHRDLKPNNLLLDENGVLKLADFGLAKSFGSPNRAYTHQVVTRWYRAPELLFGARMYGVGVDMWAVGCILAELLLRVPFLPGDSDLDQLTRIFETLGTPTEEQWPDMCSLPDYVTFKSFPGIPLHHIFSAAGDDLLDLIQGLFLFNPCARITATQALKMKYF
Chain of CDK7/cyclin H (P51946 whole entry partner): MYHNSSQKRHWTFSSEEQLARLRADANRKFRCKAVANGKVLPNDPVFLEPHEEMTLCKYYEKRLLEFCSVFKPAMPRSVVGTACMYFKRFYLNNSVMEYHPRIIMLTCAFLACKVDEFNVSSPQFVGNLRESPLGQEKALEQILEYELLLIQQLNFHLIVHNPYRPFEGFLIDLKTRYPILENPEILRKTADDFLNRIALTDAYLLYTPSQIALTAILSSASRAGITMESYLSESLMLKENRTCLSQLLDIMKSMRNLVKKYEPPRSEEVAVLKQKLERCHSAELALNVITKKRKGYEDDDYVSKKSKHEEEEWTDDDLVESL
Chain of CDK7/cyclin H (P51948 whole entry partner): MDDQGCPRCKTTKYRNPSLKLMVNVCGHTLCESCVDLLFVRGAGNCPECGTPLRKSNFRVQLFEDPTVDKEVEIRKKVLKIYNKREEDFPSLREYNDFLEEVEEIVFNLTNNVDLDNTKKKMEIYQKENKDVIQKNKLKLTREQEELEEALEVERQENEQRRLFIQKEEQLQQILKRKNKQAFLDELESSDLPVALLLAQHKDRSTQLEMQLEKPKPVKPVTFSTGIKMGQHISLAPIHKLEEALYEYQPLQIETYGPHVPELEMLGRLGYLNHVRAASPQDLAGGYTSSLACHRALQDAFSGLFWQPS
Chain of FGFR2 (P21802 481-770 limits assumed): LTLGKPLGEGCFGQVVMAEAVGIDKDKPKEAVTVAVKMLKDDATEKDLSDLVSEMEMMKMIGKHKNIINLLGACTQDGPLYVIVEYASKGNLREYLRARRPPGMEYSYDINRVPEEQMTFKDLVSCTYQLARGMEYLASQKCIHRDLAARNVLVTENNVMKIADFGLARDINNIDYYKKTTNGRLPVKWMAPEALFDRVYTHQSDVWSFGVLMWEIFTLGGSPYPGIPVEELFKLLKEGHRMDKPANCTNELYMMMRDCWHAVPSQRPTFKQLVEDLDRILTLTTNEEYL
Chain of CDK5/p35 (Q00535 4-286 limits assumed): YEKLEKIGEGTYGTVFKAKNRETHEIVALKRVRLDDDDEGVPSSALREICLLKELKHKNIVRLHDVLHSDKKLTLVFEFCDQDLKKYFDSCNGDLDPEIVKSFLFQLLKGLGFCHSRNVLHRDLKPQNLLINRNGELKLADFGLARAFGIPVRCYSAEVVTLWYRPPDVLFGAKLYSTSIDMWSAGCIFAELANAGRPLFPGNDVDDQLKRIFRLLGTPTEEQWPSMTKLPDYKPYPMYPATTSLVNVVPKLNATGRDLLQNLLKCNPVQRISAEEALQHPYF
Chain of CDK5/p35 (Q15078 whole entry partner): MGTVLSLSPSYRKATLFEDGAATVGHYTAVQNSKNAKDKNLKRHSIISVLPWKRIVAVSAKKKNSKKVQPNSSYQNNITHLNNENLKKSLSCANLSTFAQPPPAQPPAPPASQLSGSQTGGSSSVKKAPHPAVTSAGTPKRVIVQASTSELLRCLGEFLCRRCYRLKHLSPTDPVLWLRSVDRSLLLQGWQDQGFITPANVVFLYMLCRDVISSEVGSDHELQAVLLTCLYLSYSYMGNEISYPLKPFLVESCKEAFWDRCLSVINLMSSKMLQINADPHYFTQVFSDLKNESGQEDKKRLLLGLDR
Chain of JAK2 (O60674 849-1124 limits assumed): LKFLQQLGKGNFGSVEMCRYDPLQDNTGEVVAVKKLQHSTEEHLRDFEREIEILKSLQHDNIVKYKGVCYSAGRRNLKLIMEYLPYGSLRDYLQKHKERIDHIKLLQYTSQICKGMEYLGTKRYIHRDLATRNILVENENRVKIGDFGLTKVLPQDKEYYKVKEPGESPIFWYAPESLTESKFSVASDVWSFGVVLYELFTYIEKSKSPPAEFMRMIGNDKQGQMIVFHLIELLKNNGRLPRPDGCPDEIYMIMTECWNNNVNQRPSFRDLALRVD
Chain of JNK1 (P45983 26-321 limits assumed): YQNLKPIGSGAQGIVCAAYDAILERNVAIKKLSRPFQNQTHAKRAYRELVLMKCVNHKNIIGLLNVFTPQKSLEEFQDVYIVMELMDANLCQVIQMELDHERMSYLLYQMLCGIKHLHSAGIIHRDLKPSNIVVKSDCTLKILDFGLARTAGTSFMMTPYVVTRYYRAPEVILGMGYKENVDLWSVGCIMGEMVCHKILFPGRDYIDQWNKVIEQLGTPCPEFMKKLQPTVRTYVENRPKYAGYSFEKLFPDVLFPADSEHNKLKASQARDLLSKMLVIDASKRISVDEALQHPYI
Chain of JNK2 (P45984 26-321 limits assumed): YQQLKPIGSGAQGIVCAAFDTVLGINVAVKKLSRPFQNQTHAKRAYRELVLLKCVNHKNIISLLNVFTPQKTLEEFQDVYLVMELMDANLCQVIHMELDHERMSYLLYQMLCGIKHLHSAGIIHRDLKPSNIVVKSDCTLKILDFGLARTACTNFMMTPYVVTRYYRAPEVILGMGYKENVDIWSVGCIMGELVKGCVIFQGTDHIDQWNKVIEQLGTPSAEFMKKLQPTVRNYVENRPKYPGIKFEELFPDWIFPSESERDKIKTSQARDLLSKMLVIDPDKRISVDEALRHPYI
Chain of FGFR3 (P22607 472-761 limits assumed): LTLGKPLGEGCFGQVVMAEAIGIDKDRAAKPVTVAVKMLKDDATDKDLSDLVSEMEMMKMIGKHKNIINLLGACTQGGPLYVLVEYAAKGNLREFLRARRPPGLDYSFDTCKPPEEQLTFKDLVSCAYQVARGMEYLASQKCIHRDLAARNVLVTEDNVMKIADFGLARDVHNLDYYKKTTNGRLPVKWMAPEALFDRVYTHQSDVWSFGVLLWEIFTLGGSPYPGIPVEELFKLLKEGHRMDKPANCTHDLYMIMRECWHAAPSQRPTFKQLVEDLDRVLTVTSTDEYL
Chain of KDR/VEGFR2 (P35968 834-1162 limits assumed): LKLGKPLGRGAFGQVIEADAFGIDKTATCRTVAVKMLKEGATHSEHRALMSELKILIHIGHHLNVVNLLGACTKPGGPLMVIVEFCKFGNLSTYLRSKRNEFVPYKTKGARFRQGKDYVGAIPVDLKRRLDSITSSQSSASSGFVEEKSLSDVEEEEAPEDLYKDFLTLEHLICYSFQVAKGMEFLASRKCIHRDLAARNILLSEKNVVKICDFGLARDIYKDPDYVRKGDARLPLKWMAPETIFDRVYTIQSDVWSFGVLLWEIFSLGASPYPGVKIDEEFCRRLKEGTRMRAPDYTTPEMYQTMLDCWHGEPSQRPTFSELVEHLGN
Chain of FGFR1 (P11362 478-767 limits assumed): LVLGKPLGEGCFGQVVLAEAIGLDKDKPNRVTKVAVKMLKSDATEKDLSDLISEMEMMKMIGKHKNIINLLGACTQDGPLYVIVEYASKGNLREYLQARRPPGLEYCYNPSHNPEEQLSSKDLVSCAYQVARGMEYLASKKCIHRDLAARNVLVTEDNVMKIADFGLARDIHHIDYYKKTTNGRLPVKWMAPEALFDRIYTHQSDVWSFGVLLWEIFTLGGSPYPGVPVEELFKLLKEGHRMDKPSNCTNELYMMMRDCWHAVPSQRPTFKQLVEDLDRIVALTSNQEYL
Chain of CDK1/cyclin E (P06493 4-287 limits assumed): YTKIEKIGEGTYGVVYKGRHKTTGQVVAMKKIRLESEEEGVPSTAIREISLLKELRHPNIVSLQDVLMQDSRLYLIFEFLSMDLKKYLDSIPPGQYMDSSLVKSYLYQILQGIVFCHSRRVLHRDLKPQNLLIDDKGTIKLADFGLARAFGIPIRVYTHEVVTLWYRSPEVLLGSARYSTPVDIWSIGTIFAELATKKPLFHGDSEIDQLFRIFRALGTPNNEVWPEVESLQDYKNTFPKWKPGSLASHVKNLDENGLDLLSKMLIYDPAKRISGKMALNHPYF
Chain of CDK1/cyclin E (P24864 whole entry partner): as the sequence (P24864 whole entry partner) above

Consider `CN1CCN(Cc2ccc(NC(=O)c3n[nH]cc3Nc3ncnc4[nH]ccc34)cc2)CC1` [Compound I-11, 4-(4-(7H-pyrrolo[2,3-d]pyrimidinyl)amino)-N-(4-((4-methyl-1-piperazinyl)methyl)phenyl)-1H-3-pyrazolecarboxamide], for which the results for the inhibition at 1 µM at Aurora A and at CDK2/A were 64.3% and 67.9%, respectively. Also, the pIC50 against FGFR1 is 6.61; against JNK2 it was 5.88; against CDK1/cyclin B, 7.15; on CDK4/cyclin D1, 8.22; against ERK7/MAPK15, 8.15; against CDK3/cyclin E, 6.81. Moreover, the pIC50 at CDK2/cyclin A is 7.89; against CDK7/cyclin H it was 6.33; at KDR/VEGFR2 it was 7.51; against CDK1/cyclin E, 7.11; at FGFR2, 6.72; against FLT1/VEGFR1 it was 7.72. The pIC50 on FGFR3 was 6.18; against CDK1/cyclin A it was 6.89; at JNK1 it was 5.91; against CDK2/Cyclin A1 it was 8.10; on CDK5/p35 it was 7.92; on JAK2, 6.19.
With `CN1CCN(Cc2ccc(NC(=O)c3n[nH]cc3Nc3ncnc4occc34)cc2)CC1` [Compound I-21, 4-(4-furo[2,3-d]pyrimidinylamino)-N-(4-((4-methyl-1-piperazinyl)methyl)phenyl)-1H-3-pyrazolecarboxamide], the inhibition at 1 µM on Aurora A worked out at 60.8%; on CDK2/A it was 66%. Further, the pIC50 at FGFR1 (setting [1]) is 6.47; at JNK2 (setting [2]), 5.83; at CDK1/cyclin B (setting [3]), 7.02; on CDK4/cyclin D1 (setting [4]), 8.15; on ERK7/MAPK15 (setting [5]), 8.10; at CDK3/cyclin E (setting [6]) it was 6.68. For the same molecule, the pIC50 on CDK2/cyclin A (setting [7]) is 7.77; at CDK7/cyclin H (setting [8]), 6.21; on KDR/VEGFR2 (setting [9]), 7.39; at CDK1/cyclin E (setting [10]), 6.97; at FGFR2 (setting [11]), 6.59; on FLT1/VEGFR1 (setting [12]), 7.62. Also, the pIC50 against FGFR3 was 6.05; on CDK1/cyclin A (setting [13]), 6.76; at JNK1 (setting [14]), 5.85; at CDK2/Cyclin A1 (setting [15]) it was 7.96; on CDK5/p35 (setting [16]), 7.80; at JAK2 (setting [17]), 6.06.
As to `CN1CCN(Cc2ccc(NC(=O)c3n[nH]cc3Nc3ncnc4sccc34)cc2)CC1` [Compound I-1, 4-(4-thieno[2,3-d]pyrimidinylamino)-N-(4-((4-methyl-1-piperazinyl)methyl)phenyl)-1H-3-pyrazole carboxamide], the inhibition at 1 µM at Aurora A turned out to be 67.9%; at CDK2/A, 70.9%. In addition, the pIC50 on FGFR1 (setting [1]) is 6.52; at JNK2 (setting [2]), ≤ 6.00; on CDK1/cyclin B (setting [3]) it was 7.06; on CDK4/cyclin D1 it was 8.22; at ERK7/MAPK15 it was 8.15; against CDK3/cyclin E, 6.72. Also, the pIC50 is 7.82 on CDK2/cyclin A; 6.28 at CDK7/cyclin H (setting [8]); 7.46 on KDR/VEGFR2; 7.02 at CDK1/cyclin E (setting [10]); 6.63 on FGFR2 (setting [11]); 7.70 at FLT1/VEGFR1. Further, the pIC50 against FGFR3 was 6.09; on CDK1/cyclin A, 6.80; at JNK1 (setting [14]) it was ≤ 6.00; at CDK2/Cyclin A1 it was 8.05; on CDK5/p35 (setting [16]) it was 7.82; on JAK2 (setting [17]), 6.10.
Consider `Cc1cc2c(Nc3c[nH]nc3C(=O)Nc3ccc(CN4CCN(C)CC4)cc3)ncnc2s1` [Compound I-3, 4-(4-(6-methylthieno[2,3-d]pyrimidinyl)amino)-N-(4-((4-methyl-1-piperazinyl)methyl)phenyl)-1H-3-pyrazolecarboxamide], for which the inhibition at 1 µM was 75.2% on Aurora A and 62.5% at CDK2/A. Also, the pIC50 on FGFR1 (setting [1]) was 6.56; on JNK2 (setting [2]), 5.93; at CDK1/cyclin B (setting [3]), 7.10; on CDK4/cyclin D1 (setting [4]), 8.22; at ERK7/MAPK15 (setting [5]), 8.15; on CDK3/cyclin E (setting [6]), 6.77. For the same molecule, the pIC50 at CDK2/cyclin A (setting [7]) was 7.85; on CDK7/cyclin H (setting [8]), 6.31; on KDR/VEGFR2 (setting [9]) it was 7.48; on CDK1/cyclin E (setting [10]) it was 7.06; at FGFR2 (setting [11]) it was 6.68; on FLT1/VEGFR1 (setting [12]), 7.72. Besides, the pIC50 was 6.14 against FGFR3; 6.85 at CDK1/cyclin A (setting [13]); 5.95 at JNK1 (setting [14]); 8.05 on CDK2/Cyclin A1 (setting [15]); 7.89 at CDK5/p35 (setting [16]); 6.15 on JAK2 (setting [17]).
As to `O=C(Nc1ccc(CN2CCOCC2)cc1)c1n[nH]cc1Nc1ncnc2sccc12` [Compound I-2, 4-(4-thieno[2,3-d]pyrimidinylamino)-N-(4-((4-morpholinyl)methyl)phenyl)-1H-3-pyrazolecarboxamide], the inhibition at 1 µM on Aurora A came out at 52.2%; on CDK2/A, 46.6%.
On to `Cc1cc2c(Nc3c[nH]nc3C(=O)Nc3ccc(CN4CCN(C)CC4)cc3)ncnc2[nH]1` [Compound I-13, 4-(4-(6-methyl-7H-pyrrolo[2,3-d]pyrimidinyl)amino)-N-(4-((4-methyl-1-piperazinyl)methyl)phenyl)-1H-3-pyrazolecarboxamide], for which the inhibition at 1 µM was determined as 60.8% on Aurora A and 67% on CDK2/A. Moreover, the pIC50 at FGFR1 (setting [1]) is 6.52; on JNK2 (setting [2]), 5.78; at CDK1/cyclin B (setting [3]), 7.06; at CDK4/cyclin D1 (setting [4]), 8.10; on ERK7/MAPK15 (setting [5]), 8.10; on CDK3/cyclin E (setting [6]), 6.72. Further, the pIC50 was 7.82 on CDK2/cyclin A (setting [7]); 6.23 at CDK7/cyclin H (setting [8]); 7.41 at KDR/VEGFR2 (setting [9]); 7.01 on CDK1/cyclin E (setting [10]); 6.63 on FGFR2 (setting [11]); 7.64 on FLT1/VEGFR1 (setting [12]). For the same molecule, the pIC50 against FGFR3 was 6.09; at CDK1/cyclin A (setting [13]), 6.80; at JNK1 (setting [14]), 5.81; at CDK2/Cyclin A1 (setting [15]), 8.00; at CDK5/p35 (setting [16]), 7.82; on JAK2 (setting [17]) it was 6.10.
